{"source": "patent US20220133831A1", "about": "“Sarcopoterium Spinosum Extract for Treating Inflammation” (Ariel Scientific Innovations Ltd., priority 2019, published 2022)", "assay_type_in_all_cases": "cell-based, mouse", "key": {"RAW264.7 cells [1]": {"test_system": "RAW264.7 cells", "test": "Nitrite assay (Griess reagent), NO synthesis", "conditions": "LPS and/or SSE, 24 h", "procedure": "(§1) RAW264.7 cells (1×10^5 cells/ml) were cultured in 6-well plates. After 24 h incubating, NO synthesis was determined by assaying the culture supernatant for nitrite, using Griess reagent (Promega), according to manufacturer instructions."}, "[2]": {"test_system": "bone marrow-derived macrophages (BMDM)", "test": "Cell morphology of bone marrow-derived macrophages", "conditions": "LPS or SSE, 24 hr", "procedure": "FIGS. 6A-6D show an immunomodulatory effect of SSE on bone marrow-derived macrophages (BMDM). BMDM were isolated and cultured as described in the methods. Cells were treated with LPS and/or SSE for 24 hr. A. micrographs of cells were performed by bright field Olympus imaging system. Upper two: left—control; right—LPS; lower two: left—SSE; right—LPS+SSE. B. NO synthesis was measured by Griess reagent as described in the methods. C. mRNA was isolated and expression of selected genes was measured by RT-PCR as described in the methods. Results were normalized to the expression of the housekeeping gene RPS29, and are presented as the Mean±SEM. *P<0.05, **P<0.005, ***P<0.001 ****P<0.0001 compared to control, or as indicated in graphs, by one-way Anova, followed by Bonferroni's post-test. D. Western-blot analysis was performed as described in the methods. These are representative results of 3 independent experiments.\nIn-vitro experiments were performed on RAW264.7 mouse macrophage cell line and on bone marrow-derived macrophages (BMDM). RAW264.7 cells were grown in high glucose DMEM containing 10% FBS, 2 mM 1-glutamine and 1% penicillin/streptomycin. For BMDM: C57bl/6J mice at age 10 weeks were purchased from Envigo, Israel. BMDMs were isolated from femur and tibia bones. Mice were sacrificed using a CO2 chamber. […]"}, "[3]": {"test_system": "bone marrow-derived macrophages (BMDM)", "test": "Western blot analysis of MAPK phosphorylation in BMDM", "procedure": "(§2) In-vitro experiments were performed on RAW264.7 mouse macrophage cell line and on bone marrow-derived macrophages (BMDM). RAW264.7 cells were grown in high glucose DMEM containing 10% FBS, 2 mM 1-glutamine and 1% penicillin/streptomycin. For BMDM: C57bl/6J mice at age 10 weeks were purchased from Envigo, Israel. BMDMs were isolated from femur and tibia bones. Mice were sacrificed using a CO2 chamber. Mice legs were cut off, while fur, flesh and muscle tissue were removed in sterile environment followed by disconnection of the tibia from the femur. Bone marrow content was washed out using a complete RPMI and 23G syringe followed by filtration of the supernatant through a 21G syringe. The cells were centrifuged at 450×g for 10 min at room temperature and the pellet was resuspended in RPMI containing 10% FBS, 1% penicillin/streptomycin, HEPES buffer (120 Mm) and M-CSF (50 μg/ml). The media was replaced every 3 days. The experiment was performed on the 7th day of differentiation.\nRAW264.7 cells were treated with LPS (200 ng/ml) and/or SSE (70 μg/ml) for 24 hr. Protein were lysed using RIPA buffer supplemented with protease and phosphatase inhibitors. The samples were homogenized and centrifuged at 14,000 rpm for 15 min. The supernatant was collected and protein concentration was measured using the Bradford method. […]"}, "NFκB in RAW264.7 cells": {"test_system": "NFκB in RAW264.7 cells", "test": "NFκB activation (NFkB p65 Transcription Factor Assay Kit)", "conditions": "LPS 200 ng/ml, SSE 70 μg/ml", "procedure": "RAW264.7 cells were treated with LPS (200 ng/ml) or SSE (70 μg/ml) for 3 h. NFκB activation was measured using NFkB p65 Transcription Factor Assay Kit (Abcam, Cambridge, UK), according to manufacturer instructions. In this assay, nuclear proteins were extracted using extraction buffer supplied by Abcam. The samples were homogenized and centrifuged at 12,000 RPM for 1 min. The supernatant was collected and protein concentration was measured using the Bradford method. Nuclear protein extract (5 μg) was added to the wells, which were coated with DNA sequence containing the NFkB response element. The selective binding of the transcription factor to its DNA response element was measured according to manufacturer's instructions."}, "RAW264.7 cells [4]": {"test_system": "RAW264.7 cells", "test": "Cell viability assay (XTT)", "conditions": "24 h", "procedure": "as §2\nRAW264.7 cells were seeded (5×10^4 cells/well) in 96-well plates, and incubated overnight followed by treatment with LPS (200 ng/ml) and/or SSE (70 μg/ml). Cell viability was determined by XTT assay (Biological Industries, Israel. Cat. No.: 20-300-1000) according to manufacturer instructions."}, "RAW264.7 cells [5]": {"test_system": "RAW264.7 cells", "test": "Real time PCR, mRNA expression of pro and anti-inflammatory genes", "conditions": "LPS and/or SSE, 24 h", "procedure": "(§3) Total RNA was extracted from Raw264.7 cells using TRI reagent (Molecular Research Center, Inc. Cincinnati, Ohio) according to manufacturer instructions. RNA (4 μg) was reverse transcribed by oligo-dT priming (Stratascript 5.0 multi-temperature reverse transcriptase, Stratagene) according to manufacturer instructions. Real-time PCR amplification reactions were performed using SYBR Fast Universal Ready-mix Kit (Kappa Biosystems), using the MxPro QPCR instrument (Stratagene). Primers for real time PCR reactions were synthesized by Sigma, Israel."}, "[6]": {"test_system": "bone marrow-derived macrophages (BMDM)", "test": "mRNA expression in BMDM (RT-PCR)", "conditions": "24 hr", "procedure": "as §2, §3"}, "[7]": {"test_system": "bone marrow-derived macrophages (BMDM)", "test": "NO secretion of BMDM (Griess reagent)", "conditions": "24 hr", "procedure": "as §2, §1"}, "RAW264.7 cells [8]": {"test_system": "RAW264.7 cells", "test": "Cell morphology, bright field micrographs", "conditions": "LPS or SSE, 24 h", "procedure": "FIGS. 3A-3B show increased viability and affected cell morphology in […] cells in response to SSE treatment. RAW264.7 cells were treated with lipopolysaccharide (LPS) or SSE for 24 h. A. Viability was measured by XTT assay. Results are presented as the Mean±SEM, *P<0.05, **P<0.005, ***P<0.001 by one-way Anova, followed by Bonferroni's post-test. B. Micrographs of cells were performed using bright field Olympus imaging system, ×20 magnification. Upper two: left—control; right—LPS; lower two: left—SSE; right—LPS+SSE.\nas §2, with “The cells were centrifuged at 450×g for 10 min at room temperature and the pellet was resuspended in RPMI containing 10% FBS, 1% penicillin/streptomycin, HEPES buffer (120 Mm) and M-CSF (50 μg/ml). The media was replaced every 3 days. The experiment was performed on the 7th day of differentiation.” left out"}, "RAW264.7 cells [9]": {"test_system": "RAW264.7 cells", "test": "Western blot analysis of MAPK, STAT and Akt phosphorylation", "procedure": "RAW264.7 cells were treated with LPS (200 ng/ml) and/or SSE (70 μg/ml) for 24 hr. Protein were lysed using RIPA buffer supplemented with protease and phosphatase inhibitors. The samples were homogenized and centrifuged at 14,000 rpm for 15 min. The supernatant was collected and protein concentration was measured using the Bradford method. Proteins (20 μg per lane) were separated by SDS-polyacrylamide gel electrophoresis and transferred onto nitrocellulose membranes. The membranes were blocked in 5% dry milk solution, incubated with the appropriate antibody solutions (5% BSA in 0.01% TBST) and proteins were immunodetected using the enhanced chemiluminescence method."}, "[10]": {"conditions": "LPS 200 ng/ml or SSE 70 μg/ml, 24 hr"}}}
{"substance": "lipopolysaccharide [LPS]", "values": [{"measurement": "NO synthesis (nitrite in supernatant)", "setting": "RAW264.7 cells [1]", "result": "increased"}, {"measurement": "morphology of BMDM", "setting": "[2]", "result": "enlargement of the cells, with a minor vacuolization"}, {"measurement": "Erk phosphorylation", "setting": "[3]", "result": "phosphorylated"}, {"measurement": "P38 phosphorylation", "setting": "[3]", "result": "increased"}, {"measurement": "NFκB activation (binding of NFκB to its DNA response element)", "setting": "NFκB in RAW264.7 cells", "result": "increased"}, {"measurement": "proliferation rate (viability by XTT)", "setting": "RAW264.7 cells [4]", "result": "stimulatory effect"}, {"measurement": "mRNA expression of IL1β", "setting": "RAW264.7 cells [5]", "result": "increased"}, {"measurement": "mRNA expression of IL-6", "setting": "RAW264.7 cells [5]", "result": "increased"}, {"measurement": "mRNA expression of MCP-1", "setting": "RAW264.7 cells [5]", "result": "increased"}, {"measurement": "mRNA expression of TNFα", "setting": "RAW264.7 cells [5]", "result": "increased"}, {"measurement": "mRNA expression of Arg1", "setting": "[6]", "result": "also increased"}, {"measurement": "mRNA expression of IL1β", "setting": "[6]", "result": "stimulated"}, {"measurement": "mRNA expression of IL-6", "setting": "[6]", "result": "stimulated"}, {"measurement": "mRNA expression of IL-10", "setting": "[6]", "result": "also increased"}, {"measurement": "mRNA expression of MCP-1", "setting": "[6]", "result": "stimulated"}, {"measurement": "mRNA expression of TNFα", "setting": "[6]", "result": "stimulated"}, {"measurement": "NO secretion (basal)", "setting": "[7]", "result": "significantly increased"}, {"measurement": "morphology of cells", "setting": "RAW264.7 cells [8]", "result": "flattened, increased in size and acquired a distinct dendritic morphology"}, {"measurement": "Akt phosphorylation", "setting": "RAW264.7 cells [9]", "result": "induced"}, {"measurement": "STAT1 phosphorylation", "setting": "RAW264.7 cells [9]", "result": "not affected"}, {"measurement": "STAT3 phosphorylation on S727 residue", "setting": "RAW264.7 cells [9]", "result": "induced to be phosphorylated"}, {"measurement": "ERK1/2 phosphorylation", "setting": "RAW264.7 cells [9]; [10]", "result": "phosphorylated"}, {"measurement": "JNK phosphorylation", "setting": "RAW264.7 cells [9]; [10]", "result": "phosphorylated"}, {"measurement": "p38 phosphorylation", "setting": "RAW264.7 cells [9]; [10]", "result": "phosphorylated"}, {"measurement": "STATS phosphorylation", "setting": "RAW264.7 cells [9]; data not shown", "result": "not detected at all"}]}
